Literature values as cited in patent publication US20150073057A1, “COMPOSITION AND METHOD FOR TREATMENT OF DIABETES” (BioKier, Inc., priority 2013, published 2015).

Test system: overweight and obese human subjects

## Oxyntomodulin: a gut hormone, 37 amino acid peptide co-secreted along with GLP-1 from L-cells
  reduction of energy intake: ~17%
